A short description of data set [1]: Stability of the compound in PBS buffer at pH 7.2 assessed as half life at 25 degreeC by HPLC analysis. Format: physicochemical.
Data set [2] in a line: Aqueous solubility of compound. It counts as physicochemical. As to conditions: buffer.
The nature of data set [3]: Stability of the compound in PBS buffer at pH 7.2 assessed as half life in the presence of MeCN by HPLC analysis. Format: physicochemical.
Data set [4] in a line: Stability in human plasma assessed as half life at 37 degreeC by LC-MS/MS analysis. It counts as ADME, cell-free.
Data set [5] can be described thus: Stability of the compound in PBS buffer at pH 7.2 assessed as half life at 37 degreeC by LC-MS/MS analysis. Format: physicochemical.
Data set [6] can be described thus: Stability of the compound in PBS buffer at 4 degreeC. It counts as physicochemical.
The nature of data set [7]: Stability of the compound in PBS buffer at 37 degreeC. Format: physicochemical.
Data set [8] in a line: Stability of the compound at pH 5. It counts as physicochemical. The following applies: buffer.
Data set [9] in a line: Stability of the compound at pH 3. Format: physicochemical. The following applies: buffer.
The nature of data set [10]: Stability of the compound in 0.1 M HCl. Format: physicochemical.
Data set [11] in a line: Stability of the compound in 0.15 M NaCl. Format: physicochemical.
Data set [12] in a line: Stability of the compound in 1 M NaCl. Format: physicochemical.
The nature of data set [13]: Cmax in Sprague-Dawley rat at 10 mg/kg,im measured for 0.25 to 10 hrs by LC-MS/MS analysis. More on the design: time lower 0.25 hrs, dose 10 mg/kg, time upper 10 hrs, route im. The following applies: in vivo. It counts as ADME, organism-based.
Data set [14] is described as follows: Cmax in Sprague-Dawley rat at 2 mg/kg,iv measured for 0.08 to 10 hrs by LC-MS/MS analysis. As to conditions: in vivo. Format: ADME, organism-based. Set-up: dose 2 mg/kg, time 0.08-10 hrs, route iv.
Data set [15] can be described thus: Cmax in Sprague-Dawley rat assessed as cmax of parent compound at 10 mg/kg,IM measured for 0.25 to 10 hrs by LC-MS/MS analysis. Format: ADME, organism-based. More on the design: time upper 10 hrs, time lower 0.25 hrs, dose 10 mg/kg, route im. As to conditions: in vivo.
A short description of data set [16]: Cmax in Sprague-Dawley rat assessed as cmax of parent compound at 2 mg/kg,iv measured for 0.08 to 10 hrs by LC-MS/MS analysis. It counts as ADME, organism-based. More on the design: dose 2 mg/kg, time 0.08-10 hrs, route iv. The following applies: in vivo.
The nature of data set [17]: AUC (0-last) in Sprague-Dawley rat at 10 mg/kg, IM measured for 0.25 to 10 hrs by LC-MS/MS analysis. It counts as ADME, organism-based. Set-up: time upper 10 hrs, dose 10 mg/kg, time lower 0.25 hrs, route im. As to conditions: in vivo.
The nature of data set [18]: AUC (0-last) in Sprague-Dawley rat at 2 mg/kg,iv measured for 0.08 to 10 hrs by LC-MS/MS analysis. Format: ADME, organism-based. More on the design: dose 2 mg/kg, time 0.08-10 hrs, route iv. As to conditions: in vivo.
Data set [19] is described as follows: AUC (0-last) in Sprague-Dawley rat assessed as AUC (0-last) of parent compound at 10 mg/kg,IM measured for 0.25 to 10 hrs by LC-MS/MS analysis. The following applies: in vivo. Set-up: time 0.25-10 hrs, dose 10 mg/kg, route im. Format: ADME, organism-based.
A short description of data set [20]: AUC (0-last) in Sprague-Dawley rat assessed as AUC (0-last) of parent compound at 2 mg/kg,iv measured for 0.08 to 10 hrs by LC-MS/MS analysis. Format: ADME, organism-based. More on the design: dose 2 mg/kg, time upper 10 hrs, time lower 0.08 hrs, route iv. As to conditions: in vivo.
In the next data set the test system is Rattus norvegicus. In words: Neuroprotective activity against Sprague-Dawley rat model of traumatic brain injury assessed as reduction in cerebral edema at 10 mg/kg, IM administered for 1 to 6 hrs measured after 24 hrs relative to control. It counts as functional. More on the design: scale not given: the % may be the effect or the level left. The following applies: time 25-30 hrs.

Data set [21] is described as follows: Solubility of compound in normal saline. It counts as physicochemical.
Data set [22] is described as follows: Cytotoxicity against human HepG2 cells by Maestro Z Impedance Assay. Format: toxicity, cell-based.
Another data set relates to HepG2. The data set is described as follows: Cytotoxicity against human HepG2 cells assessed as maximum cytolysis at 100 uM by Maestro Z Impedance Assay relative to control. It counts as toxicity, cell-based. As to conditions: hepg2, 100 µM.

Structures are written as SMILES.

Consider `C/C(=N\OC(=O)[C@@H](N)C(C)C)[C@H]1CC[C@H]2[C@@H]3CCC4=CC(=O)CC[C@]4(C)[C@H]3CC[C@]12C.Cl`, for which, in [1], the half-life is 11 h. Besides, the concentration in solution in data set [2] (solubility) came to 146 µM.

For the molecule `C/C(=N\OC(=O)N(C)CCNCCOC(F)(F)F)[C@H]1CC[C@H]2[C@@H]3CCC4=CC(=O)CC[C@]4(C)[C@H]3CC[C@]12C.Cl`, the half-life was 28.5 h in data set [3] and 1.7 h in [4]. In [2], this molecule registered a solubility below 1 mg/mL.

Regarding `C/C(=N\OC(=O)N(C)C[C@@H]1CCCN1)[C@H]1CC[C@H]2[C@@H]3CCC4=CC(=O)CC[C@]4(C)[C@H]3CC[C@]12C.Cl`, the half-life in [1] is 1.9 h; in data set [5], 1.9 h; in [6], 74.4 h; in [7], 1 h; in [8], 175 h; in [9], 192 h. For the same molecule, the half-life in data set [10] is 1.3 h; in [11], above 240 h; in data set [12], 168 h. Further, the Cmax in data set [13] was determined as 224 ng/mL; in data set [14], 122 ng/mL; in [15], 954 ng/mL; in data set [16], 328 ng/mL. The AUC(0-t) in [17] stood at 288 ng·h/mL; in data set [18], 62.9 ng·h/mL. Also, the AUClast came out at 1304 ng·h/mL in data set [19] and 176 ng·h/mL in [20]. The Activity with Rattus norvegicus is recorded as 40%. This molecule yielded a solubility in data set [21] above 50 mg/mL.

Regarding `C/C(=N\OC(=O)OCCN)[C@H]1CC[C@H]2[C@@H]3CCC4=CC(=O)CC[C@]4(C)[C@H]3CC[C@]12C.Cl`, the half-life in data set [1] is 0.11 h.

Take `CNCCN(C)C(=O)O/N=C(\C)[C@H]1CC[C@H]2[C@@H]3CCC4=CC(=O)CC[C@]4(C)[C@H]3CC[C@]12C.Cl`: the half-life in [1] is 46.9 h; in data set [4], 2.7 h.

For the molecule `CNCCN(CCO)C(=O)O/N=C(\C)[C@H]1CC[C@H]2[C@@H]3CCC4=CC(=O)CC[C@]4(C)[C@H]3CC[C@]12C.Cl`, the half-life in [1] is 24.8 h; in data set [4], 1.6 h.

Take `CNC[C@@H]1CCCN1C(=O)O/N=C(\C)[C@H]1CC[C@H]2[C@@H]3CCC4=CC(=O)CC[C@]4(C)[C@H]3CC[C@]12C.Cl`: the half-life in [1] is above 240 h; in data set [4], above 4 h.

On to `C/C(=N\OC(=O)N(C)C[C@@H]1CCCN1C)[C@H]1CC[C@H]2[C@@H]3CCC4=CC(=O)CC[C@]4(C)[C@H]3CC[C@]12C.Cl`, for which the figures for the half-life in data set [5] and in data set [4] were above 2 h and 0.9 h, respectively.

For `C/C(=N\OC(=O)N(C)CCNCCO)[C@H]1CC[C@H]2[C@@H]3CCC4=CC(=O)CC[C@]4(C)[C@H]3CC[C@]12C.Cl`, the half-life in [1] was 30.4 h; in [4] it was 2.8 h.

For the molecule `C/C(=N\OC(=O)OC[C@@H]1CCCN1)[C@H]1CC[C@H]2[C@@H]3CCC4=CC(=O)CC[C@]4(C)[C@H]3CC[C@]12C.Cl`, the half-life in data set [1] is 0.09 h.

In turn, `CN1C[C@@H]2CCCN2C1=O` had a CC50 in data set [22] above 100 µM. Besides, the Activity in the data set on HepG2 stood at 30%.

Consider `CNCCCN(C)C(=O)O/N=C(\C)[C@H]1CC[C@H]2[C@@H]3CCC4=CC(=O)CC[C@]4(C)[C@H]3CC[C@]12C.Cl`, for which the half-life in data set [1] is above 240 h; in [4], above 4 h.

Take `C/C(=N\OC(=O)NCCN)[C@H]1CC[C@H]2[C@@H]3CCC4=CC(=O)CC[C@]4(C)[C@H]3CC[C@]12C.Cl`: the half-life in [1] is above 240 h; in data set [4], above 2 h.

Turning to `C/C(=N\OC(=O)OCCN(C)C)[C@H]1CC[C@H]2[C@@H]3CCC4=CC(=O)CC[C@]4(C)[C@H]3CC[C@]12C.Cl`, the half-life is 3.5 h in [1] and 7.2 h in data set [4].

For the molecule `C/C(=N\OC(=O)N1CCC[C@H]1CN)[C@H]1CC[C@H]2[C@@H]3CCC4=CC(=O)CC[C@]4(C)[C@H]3CC[C@]12C.Cl`, the half-life in data set [1] was above 240 h; in [4] it was above 4 h.

On to `C/C(=N\OC(=O)N(C)CCNCCF)[C@H]1CC[C@H]2[C@@H]3CCC4=CC(=O)CC[C@]4(C)[C@H]3CC[C@]12C.Cl`, for which the half-life is 36.1 h in [1] and 2.2 h in data set [4].

As to `C/C(=N\OC(=O)NC[C@@H]1CCCN1)[C@H]1CC[C@H]2[C@@H]3CCC4=CC(=O)CC[C@]4(C)[C@H]3CC[C@]12C.Cl`, the half-life in data set [1] was above 240 h; in data set [4] it was above 4 h.

On to `C/C(=N\OC(=O)N(C)C[C@@H]1CCCCN1)[C@H]1CC[C@H]2[C@@H]3CCC4=CC(=O)CC[C@]4(C)[C@H]3CC[C@]12C.Cl`, for which, in data set [1], the half-life is above 240 h.

On to `C/C(=N\OCOP(=O)([O-])[O-])[C@H]1CC[C@H]2[C@@H]3CCC4=CC(=O)CC[C@]4(C)[C@H]3CC[C@]12C.[Na+].[Na+]`, for which the Cmax in data set [13] was 1360 ng/mL; in data set [14] it was 182 ng/mL; in [15], 425 ng/mL; in data set [16] it was 219 ng/mL. The area under the curve AUC(0-t) in [17] was 724 ng·h/mL; in [18] it was 22 ng·h/mL. Further, the AUClast in data set [19] came to 753 ng·h/mL; in [20], 48 ng·h/mL. The molecule also had a solubility in [2] above 150 mg/mL.

On to `C/C(=N\OC(=O)NCCN(C)C)[C@H]1CC[C@H]2[C@@H]3CCC4=CC(=O)CC[C@]4(C)[C@H]3CC[C@]12C.Cl`, for which the values for the half-life in data set [1] and in data set [4] were above 240 h and above 3.5 h, respectively.

Consider `C/C(=N\OC(=O)NC[C@@H]1CCCCN1)[C@H]1CC[C@H]2[C@@H]3CCC4=CC(=O)CC[C@]4(C)[C@H]3CC[C@]12C.Cl`, for which the half-life in [1] was above 240 h.

For the molecule `CNCC(C)(C)CN(C)C(=O)O/N=C(\C)[C@H]1CC[C@H]2[C@@H]3CCC4=CC(=O)CC[C@]4(C)[C@H]3CC[C@]12C.Cl`, the half-life in data set [1] is above 240 h; in data set [4] it was above 4 h.

In the case of `CC(=O)[C@H]1CC[C@H]2[C@@H]3CCC4=C/C(=N/OC(=O)[C@@H](N)C(C)C)CC[C@]4(C)[C@H]3CC[C@]12C.Cl`, in [1], the half-life was 10 h. Further, in [2], the solubility is 172 µM.
